Where a SMILES comes first, the peptide text is derived from it.
These molecules were tested against T1, LmjIPCS (inositol phosphorylceramide synthase from L. major) (Leishmania major, UniProt E9AFX2) (assay: biochemical). Settings: not given.
T1 sequence (E9AFX2 1-338): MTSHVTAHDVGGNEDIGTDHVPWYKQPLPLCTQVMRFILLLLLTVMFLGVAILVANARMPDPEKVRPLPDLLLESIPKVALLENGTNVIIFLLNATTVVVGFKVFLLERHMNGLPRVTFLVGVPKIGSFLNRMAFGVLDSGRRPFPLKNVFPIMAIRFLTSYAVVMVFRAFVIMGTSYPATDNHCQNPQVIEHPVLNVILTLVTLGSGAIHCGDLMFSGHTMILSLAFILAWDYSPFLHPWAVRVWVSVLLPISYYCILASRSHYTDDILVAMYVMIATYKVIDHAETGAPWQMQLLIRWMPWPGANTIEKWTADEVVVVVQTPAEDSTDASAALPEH
Type: biochemical
Set-up: inhibition: dose or concentration left out as unconfirmed

In order of falling “20mM inhibition LmjIPCS” value:
1. CCCCCCCCCCC[C@@H](C[C@@H]1OC(=O)[C@H]1CCCCCC)OC(=O)[C@H](CC(C)C)NC=O [ORLISTAT]  66%
2. NCCc1cc(O)c(O)cc1O [OXIDOPAMINE]  65%
3. CC(C)COCC(CN(Cc1ccccc1)c1ccccc1)N1CCCC1 (stereo not shown) [BEPRIDIL]  61%
4. CC(=O)OCC[N+](C)(C)C [ACETYLCHOLINE]  58%
5. CC(C)=CCC[C@]1(C)C=Cc2c(O)c3c(c(CC=C(C)C)c2O1)O[C@]12C(=C[C@@H]4C[C@H]1C(C)(C)O[C@@]2(C/C=C(/C)C(=O)O)C4=O)C3=O [GAMBOGIC ACID]  58%
6. c1ccc(-c2ccc(C(c3ccccc3)n3ccnc3)cc2)cc1 (stereo not shown) [BIFONAZOLE]  52%
7. CCCc1nn(C)c2c(=O)[nH]c(-c3cc(S(=O)(=O)N4CCN(C)CC4)ccc3OCC)nc12  50%
8. O=C1C=CC(=O)c2c(O)cccc21 [JUGLONE]  48%
9. Nc1ccc(C(=O)O)c(O)c1 [AMINOSALICYLATE SODIUM]  43%
10. CNC(C)C(O)c1ccccc1 (stereo not shown) [RACEPHEDRINE]  41%
11. Nc1ccc(C(=O)[O-])cc1.[K+] [POTASSIUM p-AMINOBENZOATE]  40%
12. CCN1CCCC(OC(=O)C(c2ccccc2)c2ccccc2)C1 (stereo not shown) [PIPERIDOLATE]  39%
13. CC[C@@H](CO)NC(=O)[C@@H]1C=C2c3cccc4[nH]cc(c34)C[C@H]2N(C)C1 [METHYLERGONOVINE]  35%
14. O=C(O)CC[N+](=O)[O-] [BOVINOCIDIN]  21%
15. O=C(O)c1cc([N+](=O)[O-])ccc1NCCCc1ccccc1 [5-NITRO-2-PHENYLPROPYLAMINOBENZOIC ACID]  15%
16. C[C@@H]1C[C@H]2[C@@H]3C[C@H](F)C4=CC(=O)C=C[C@]4(C)[C@@]3(F)[C@@H](O)C[C@]2(C)[C@@]1(O)C(=O)COC(=O)C(C)(C)C [FLUMETHAZONE PIVALATE]  14%
17. Cc1oncc1C(=O)Nc1ccc(C(F)(F)F)cc1 [LEFUNOMIDE]  10%
18. NC(=O)c1cc([N+](=O)[O-])cc([N+](=O)[O-])c1 [NITROMIDE]  9%
19. CNC(=N)NCCC[C@H](N)C(=O)O [TARGININE]  -2%

Same assay, conditions: NINDS set screen, single concentration printed as 20mM

In order of falling “20mM inhibition LmjIPCS” value:
1. N=C(N)NC(=O)c1nc(Cl)c(N2CCCCCC2)nc1N [N,N-HEXAMETHYLENEAMILORIDE]  65%
2. C[N+](C)(C)CCOC(N)=O [CARBACHOL]  57%
3. CC(C)[N+](C)(CCOC(=O)C1c2ccccc2Oc2ccccc21)C(C)C [PROPANTHELINE BROMIDE]  35%

Same assay, conditions: NINDS set screen; read-out: inhibition LmjIPCS

In order of falling inhibition:
1. CNC[C@H](O)c1cccc(O)c1 [PHENYLEPHRINE]  25%
2. O=C(c1ccccc1)c1ccc2n1CCC2C(=O)O (stereo not shown) [KETOROLAC]  20%
3. CC(=O)O[C@]1(C(C)=O)CC[C@H]2[C@@H]3C[C@H](C)C4=CC(=O)CC[C@]4(C)[C@H]3CC[C@@]21C [MEDROXYPROGESTERONE ACETATE]  17%
4. Cn1c(=O)c2c(ncn2CC(O)CO)n(C)c1=O (stereo not shown) [DYPHYLLINE]  -5.31%
5. CC(=O)NC1CCSC1=O (stereo not shown) [CITIOLONE]  -8%

Same assay, conditions: read-out: 20mM inhibition LmjIPCS

In order of falling inhibition at 20000 µM:
1. CO[C@H]1/C=C/O[C@@]2(C)Oc3c(C)c(O)c4c(O)c(c(/C=N/N5CCN(C)CC5)c(O)c4c3C2=O)NC(=O)/C(C)=C\C=C\[C@H](C)[C@H](O)[C@@H](C)[C@@H](O)[C@@H](C)[C@H](OC(C)=O)[C@@H]1C [RIFAMPIN]  27%
2. COc1ccc(OC)c(C(O)C(C)N)c1 (stereo not shown) [METHOXAMINE]  24%
3. CC=CC(=O)N(CC)c1ccccc1C (mixture of isomers) [CROTAMITON]  22%
4. C=C(C)[C@@H]1CC[C@]2(C(=O)O)CC[C@]3(C)[C@H](CC[C@@H]4[C@@]5(C)CC[C@H](O)C(C)(C)[C@@H]5CC[C@]43C)[C@@H]12 [BETULINIC ACID]  21%
5. Cc1ncc(CNC(=O)N(CCCl)N=O)c(N)n1 [NIMUSTINE]  20%
6. CC(C)CC(NC(=O)OCC1c2ccccc2-c2ccccc21)C(=O)O (stereo in doubt)  12%
7. N[C@H]1C(O)O[C@H](CO)[C@@H](O)[C@@H]1O (stereo partly shown) [GLUCOSAMINE]  10%
8. CCCCC(=O)Oc1ccccc1C(=O)O [VALERYL SALYCILATE]  10%
9. CC(=O)OCC(=O)[C@@]1(O)[C@H](OC(C)=O)C[C@H]2[C@@H]3CCC4=CC(=O)C=C[C@]4(C)[C@@]3(F)[C@@H](O)C[C@@]21C [TRIAMCINOLONE DIACETATE]  10%
10. O=c1cccc2n1C[C@@H]1CNC[C@H]2C1 [CYTISINE]  9%
11. O=c1cc[nH]c(=S)[nH]1 [2-THIOURACIL]  7%
12. CC1=NS(=O)(=O)c2cc(Cl)ccc2N1 [DIAZOXIDE]  5%
13. C[C@@H]1O[C@@H](O[C@H]2[C@H](Oc3cc(O)c4c(c3)O[C@H](c3ccc(O)cc3)CC4=O)O[C@H](CO)[C@@H](O)[C@@H]2O)[C@H](O)[C@H](O)[C@H]1O [NARINGIN]  4.67%
14. CC(=O)OCC(=O)[C@@]1(O)CC[C@H]2[C@@H]3CCC4=CC(=O)CC[C@]4(C)[C@@]3(F)[C@@H](O)C[C@@]21C [FLUDROCORTISONE ACETATE]  4.65%
15. NCCCC[C@H](N)C(=O)N[C@@H](Cc1ccccc1)C(=O)N[C@@H](Cc1ccc(O)cc1)C(=O)O [LYSYLPHENYLALANYLTYROSINE] (H-Lys-Phe-Tyr-OH)  4.61%
16. O=c1c(O)c(-c2ccc(O)cc2O)oc2cc(O)cc(O)c12 [MORIN]  4%
17. Nc1nc(N)c2nc(CNc3ccc(C(=O)N[C@@H](CCC(=O)O)C(=O)O)cc3)cnc2n1 [AMINOPTERIN]  0.247%
18. CC[C@@H](C(=O)O)[C@@H]1O[C@@H]([C@@H](C)[C@H](O)[C@H](C)C(=O)[C@H](CC)[C@H]2O[C@]3(C=C[C@@H](O)[C@]4(CC[C@@](C)([C@H]5CC[C@](O)(CC)[C@H](C)O5)O4)O3)[C@H](C)C[C@@H]2C)[C@@H](C)C[C@@H]1C [NARASIN]  -0.161%
19. NCCc1ccc(O)c(O)c1 [DOPAMINE]  -1.1%
20. O=C1NC(=O)C(=O)C(=O)N1 [ALLOXAN]  -1.11%
21. CC(=O)OC(C)C[N+](C)(C)C (stereo not shown) [METHACHOLINE CHLORIDE]  -18%

Same assay, conditions: read-out: inhibition LmjIPCS

In order of rising inhibition:
1. CCn1cc(C(=O)O)c(=O)c2cc(F)c(N3CCNC(C)C3)c(F)c21 (stereo not shown) [LOMEFLOXACIN]  4%
2. CC(=O)CCCCn1c(=O)c2c(ncn2C)n(C)c1=O [PENTOXIFYLLINE]  5.62%
3. Cc1c(NC(=O)c2cccnc2)c(=O)n(-c2ccccc2)n1C [NIFENAZONE]  11%
4. NS(=O)(=O)c1cc2c(cc1Cl)NCNS2(=O)=O [HYDROCHLOROTHIAZIDE]  13%
5. CCn1cc(C(=O)O)c(=O)c2cc(F)c(N3CCNCC3)cc21 [NORFLOXACIN]  17%
6. COc1cc(O)c2c(c1)C(=O)c1cc(C)cc(O)c1C2=O [PHYSCION]  18%
7. O=c1cc(-c2ccccc2)oc2cc(O)cc(O)c12 [CHRYSIN]  22%

Same assay, conditions: screening of NINDS set, sheet Screen 1; read-out: inhibition LmjIPCS

Molecule COc1ccc(/C=C/C(=O)Nc2ccccc2C(=O)O)cc1OC has an inhibition of 6.57%.

Same assay, conditions: single concentration 20mM as printed; screening of NINDS set, sheet Screen 1

In order of rising “20mM inhibition LmjIPCS” value:
1. NCCCS(=O)(=O)O [3-AMINOPROPANESULPHONIC ACID]  3.28%
2. NC1(C(=O)O)CC1 [AMINOCYCLOPROPANECARBOXYLIC ACID]  9%

Source: article PMC7802075 (ACS Infectious Diseases, 2020)
